These results are taken from patent US8912318B2, “Nucleobase-functionalized conformationally restricted nucleotides and oligonucleotides for targeting nucleic acids” (University of Idaho, priority 2009, dated 2014).

Like-named read-outs stand apart in the source and are kept apart here.

One may read the Tm as the temperature at which the thermal transition is half complete. As usually defined, the ΔTm is the shift of the melting midpoint relative to a reference.

The test system of data set [1] is complementary or mismatched DNA targets. The following applies: cited from earlier work.
For data set [2] the test system is unchanged. The data set can be described thus: Fluorescence quantum yields and extinction coefficients with DNA targets. The class given is physicochemical.
The test system of data set [3] is mismatched DNA targets. The data set can be described thus: UV thermal denaturation of 13-mer fluorophore probes with mismatched DNA targets. The class given is binding. The following applies: for mismatch ΔTm: mismatched vs complementary duplex; for Tm / ΔTm: DNA: 3′-d(GCG TTG BGT TGC G); for ΔTm: relative to B = A.
Data set [4] relates to complementary DNA. The data set is described as follows: UV thermal denaturation of 13-mer fluorophore probes with complementary DNA. The class given is binding. The following applies: B = A.
For data set [5], the system named is mismatched RNA targets. The data set can be described thus: UV thermal denaturation of 13-mer probes with mismatched RNA targets. The class given is binding.
The subject of data set [6] is complementary RNA. The data set is described as follows: UV thermal denaturation of 13-mer probes with complementary RNA. The class given is binding. The following applies: B = A.
Data set [7] concerns complementary or mismatched DNA targets. The data set is described as follows: Steady-state fluorescence emission intensity with DNA targets. The note with it: for discrimination factor Im/Imm, range: intensity of duplex with complementary DNA divided by intensity of SSP or mismatched duplexes.
Data set [8] has as its system dsDNA target (SEQ ID NO: 2 : SEQ ID NO: 3). The data set is described as follows: UV thermal denaturation of triplexes formed by TFOs with dsDNA. The class given is binding. The note with it: for Tm of triplex: pH 7.0 phosphate buffer, 140 mM KCl, 1.0 μM each strand; for ΔTm/mod of triplex: relative to reference DNA TFO T1, per modification.
The subject of data set [9] is Hoogsteen mismatched dsDNA targets (SEQ ID NO: 4 : SEQ ID NO: 5), B:B′ = T:A, C:G, G:C. The data set is described as follows: Thermal denaturation of Hoogsteen mismatched triplexes in the presence of Mg2+ ions. The class given is binding. The following applies: for Tm of triplex: 10 mM MgCl2; for ΔTm: change relative to matched triplex. On the procedure:
(§1) Concentrations of all TFOs were determined using the extinction coefficient of 118500 L×(mol×cm)-1. 1 mL solution containing 1.0 nmol of each strand was denatured by heating and subsequently cooled to the starting temperature of the experiment in quartz optical cells with a path-length of 1.0 cm. Thermal denaturation profiles were recorded on a Cary 100 UV/VIS spectrophotometer equipped with a 12-cell Peltier temperature controller using a ramp of 0.5° C./min. Thermal denaturation temperatures (Tm) for triplex to duplex transitions were determined as the first derivative of difference thermal denaturation profiles (dA260 vs. T), which were obtained by subtracting the thermal denaturation profile of the dsDNA target (always included as one of the samples in multicell holder of UV-Vis spectrophotometer) from the raw thermal denaturation profile of the TFO+dsDNA (FIG. 13). Reported Tm-values are an average of at least two experiments within ±1.0° C.

Data set [10] deals with dsDNA target (SEQ ID NO: 4 : SEQ ID NO: 5), B:B′ = A:T. The data set can be described thus: Thermal denaturation of matched triplexes in the presence of Mg2+ ions. The class given is binding. The following applies: A:T (match); 10 mM MgCl2. On the procedure:
as §1

Setting [11] is: complementary DNA, [Na+] = 110 mM, pH 7.0, 1.0 μM each strand.
[12] abbreviates: vs. the C-mismatched DNA target.

With `c1ccc(-c2c3ccccc3c(-c3ccccc3)c3ccccc23)cc1` [9,10-diphenylanthracene], the “fluorescence quantum yield ΦF” value in data set [1] was 0.95.
`O=C(NCC#Cc1cn([C@H]2C[C@H](O)[C@@H](CO)O2)c(=O)[nH]c1=O)c1ccc2ccc3cccc4ccc1c2c34` [P″, 5-[3-(1-pyrenecarboxamido)propynyl]-2′-deoxyuridine]: in data set [2] (DNA target B = A, T = 5° C.), the “Fluorescence quantum yield (φF)” value is 0.33-0.58.
Turning to `O=C(O)CCCc1ccc2ccc3cccc4ccc1c2c34` [pyrenebutanoic acid], the “fluorescence quantum yield ΦF, reported value” in [1] is on record as 0.065. In addition, the “fluorescence quantum yield ΦF” value in data set [2] (in MeOH, relative to 9,10-diphenylanthracene) came to 0.069.
Regarding “ON1: unmodified reference strand 5′-CG CAA ATA AAC GC (DNA CGCAAATAAACGC; unmodified DNA) [reference compound]”, the “mismatch ΔTm” value in data set [3] (DNA target B = C) was −10.0 °C; in [3] (DNA target B = G) it was −5.0 °C; in [3] (DNA target B = T), −9.0 °C. In addition, the Tm in data set [4] (setting [11]) was 48.5 °C.
Consider “ON2: unmodified reference strand 5′-CG CAA CTC AAC GC (DNA CGCAACTCAACGC; DNA, backbone not given here) [reference compound]”, for which the entries for the “mismatch ΔTm” value in [3] (DNA target B = C), in data set [3] (DNA target B = G) and in [3] (DNA target B = T) were −13.5 °C, −7.0 °C and −9.0 °C, respectively. Further, the Tm in data set [3] (B = C) is 42.0 °C; in data set [3] (B = G) it was 48.5 °C; in [3] (B = T), 46.5 °C; in [4] (DNA: 3′-d(GCG TTG BGT TGC G)), 55.5 °C; in data set [4] (setting [11]), 55.5 °C; in data set [6] it was 51.5 °C. Also, the figures for the ΔTm result in data set [3] (B = C), in data set [3] (B = G) and in data set [3] (B = T) were “(−13.5) ° C”, “(−7.0) ° C” and “(−9.0) ° C”, respectively. Besides, the “mismatch DTm” value is −15.5 °C in [5] (RNA target B = C), −3.0 °C in [5] (RNA target B = G) and −13.5 °C in data set [5] (RNA target B = U).
With “ON10: 5′-CG CAA CPC AAC GC (DNA CGCAACNCAACGC; listed as DNA, chemistry not fully specified)”, the Tm in data set [3] (B = C) stood at 43.0 °C; in [3] (B = G), 48.0 °C; in data set [3] (B = T), 46.0 °C; in data set [4] (DNA: 3′-d(GCG TTG BGT TGC G)) it was 52.5 °C. In addition, the ΔTm result is given as “(−9.5) ° C” in data set [3] (B = C), “(−4.5) ° C” in data set [3] (B = G) and “(−6.5) ° C” in [3] (B = T). Moreover, the “discrimination factor Im/Imm, range” value in data set [7] is 7.3-15.9.
As to “ON11: 5′-CG CAA GPG AAC GC (DNA CGCAAGNGAACGC; listed as DNA, chemistry not fully specified)”, in data set [7], the “discrimination factor Im/Imm, range” value was 8.3-41.9.
On the same count and under the same terms, the result for “ON13: 5′-CG CAA AP′A AAC GC (DNA CGCAAANAAACGC; modified nucleotide P', chemistry not fully specified)” reads 3.4-14.1.
Consider “ON14: 5′-CG CAA CP′C AAC GC (DNA CGCAACNCAACGC; modified nucleotide P', chemistry not fully specified)”, for which the Tm in data set [3] (B = C) is 40.5 °C; in data set [3] (B = G), 44.5 °C; in [3] (B = T), 44.5 °C; in data set [4] (DNA: 3′-d(GCG TTG BGT TGC G)), 51.5 °C. For the same molecule, the figures for the ΔTm result in data set [3] (B = C), in data set [3] (B = G) and in data set [3] (B = T) were “(−11.5) ° C”, “(−7.0) ° C” and “(−7.0) ° C”, respectively. Moreover, in [7] (setting [12]), the “discrimination factor Im/Imm” value was 5.8. The “ΦF,m/ΦF,mm” value in [2] (setting [12]) is about 3.2.
As for “ON16: 5′-CG CAA TP′T AAC GC (DNA CGCAATNTAACGC; modified nucleotide P', chemistry not fully specified)”, in data set [7], the “discrimination factor Im/Imm, range” value is 2.9-11.4.
Take “SEQ ID NO: 9: 5′-d(CGC AAC βCA ACG C (DNA CGCAACNCAACGC; β modified nucleotide, chemistry not fully specified)”: the Tm amounted to 43.0 °C in data set [3] (B = C), 46.5 °C in [3] (B = G), 48.5 °C in data set [3] (B = T) and 56.5 °C in [4] (DNA: 3′-d(GCG TTG BGT TGC G)). In addition, the results for the ΔTm entry in data set [3] (B = C), in data set [3] (B = G) and in data set [3] (B = T) were “(−13.0) ° C”, “(−10.0) ° C” and “(−8.0) ° C”, respectively.
As to “SEQ ID NO: 10: 5′-d(CGC AAC γCA ACG C (DNA CGCAACNCAACGC; γ modified nucleotide, chemistry not fully specified)”, the Tm in [3] (B = C) was determined as 45.5 °C; in data set [3] (B = G) it was 46.5 °C; in data set [3] (B = T), 45.5 °C; in data set [4] (DNA: 3′-d(GCG TTG BGT TGC G)), 47.0 °C. For the same molecule, the figures for the ΔTm entry in data set [3] (B = C), in [3] (B = G) and in data set [3] (B = T) were “(−1.5) ° C”, “(-0.5) ° C” and “(−1.5) ° C”, respectively.
With “SEQ ID NO: 11: 5′-d(CGC AAC αCA ACG C (DNA CGCAACNCAACGC; α modified nucleotide, chemistry not fully specified)”, the Tm was found to be 43.0 °C in data set [3] (B = C), 46.0 °C in data set [3] (B = G), 45.0 °C in data set [3] (B = T) and 44.5 °C in data set [4] (DNA: 3′-d(GCG TTG BGT TGC G)). In addition, the ΔTm entry is listed as “(−1.5) ° C” in data set [3] (B = C), “(+1.5) ° C” in data set [3] (B = G) and “(+0.5) ° C” in data set [3] (B = T).
As for “V1′: TFO TTT TT^mC TBT ^mCT^mC T^mCT, B = V′ (DNA TTTTTNTNTNTNTNT; 5-methyl-C, modified nucleotide V', chemistry not fully specified)”, the Tm of triplex was found to be 37.0 °C in [8]; 14.5 °C in data set [9] (C:G mismatch); 25.5 °C in data set [9] (G:C mismatch); 11.0 °C in data set [9] (T:A mismatch); 46.0 °C in data set [10]. Further, in [8], the ΔTm/mod of triplex result is “+8.0 °C”. Also, the ΔTm in data set [9] (C:G mismatch) is −31.5 °C; in [9] (G:C mismatch), −20.5 °C; in data set [9] (T:A mismatch) it was −36.0 °C.
“X1′: TFO TTT TT^mC TBT ^mCT^mC T^mCT, B = X′ (DNA TTTTTNTNTNTNTNT; 5-methyl-C, modified nucleotide X', chemistry not fully specified) [reference compound]”: the Tm of triplex in [8] amounted to 35.5 °C; in data set [9] (C:G mismatch), 15.5 °C; in data set [9] (G:C mismatch), 22.5 °C; in [9] (T:A mismatch), 10.0 °C; in [10], 45.0 °C. The ΔTm/mod of triplex entry in data set [8] was “+6.5 °C”. The thermal shift (ΔTm) in data set [9] (C:G mismatch) is −29.5 °C; in data set [9] (G:C mismatch), −22.5 °C; in data set [9] (T:A mismatch), −35.0 °C.
Consider “Y1′: TFO TTT TT^mC TBT ^mCT^mC T^mCT, B = Y′ (DNA TTTTTNTNTNTNTNT; 5-methyl-C, modified nucleotide Y', chemistry not fully specified)”, for which the Tm of triplex in [8] was determined as 37.5 °C; in data set [9] (C:G mismatch), 13.5 °C; in data set [9] (G:C mismatch) it was 24.5 °C; in data set [9] (T:A mismatch), 12.0 °C; in data set [10] it was 47.5 °C. Also, the ΔTm/mod of triplex entry in data set [8] is “+8.5 °C”. Besides, the ΔTm in data set [9] (C:G mismatch) was −34.0 °C; in [9] (G:C mismatch), −23.0 °C; in data set [9] (T:A mismatch) it was −35.5 °C.
